Assay results reported in PubChem BioAssay (NCI).
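Following 48 hours of exposure in 96-well plates, responses at five concentrations were used to interpolate endpoints linearly. Definition used: TGI = concentration required for complete inhibition of growth.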

Tests used:
Assay in all cases: inhibition of tumour cell growth, NCI panel, 48 h
[1] = test system: 786-0 renal
[2] = test system: A498 renal
[3] = test system: A549 NSCLC
[4] = test system: ACHN renal
[5] = test system: BT-549 breast
[6] = test system: CAKI-1 renal
[7] = test system: COLO 205 colon
[8] = test system: DU-145 prostate
[9] = test system: EKVX NSCLC
[10] = test system: HCT-116 colon
[11] = test system: HCT-15 colon
[12] = test system: HOP-62 NSCLC
[13] = test system: HOP-92 NSCLC
[14] = test system: HS 578T breast
[15] = test system: HT29 colon
[16] = test system: IGROV1 ovarian
[17] = test system: K-562 leukemia
[18] = test system: KM12 colon
[19] = test system: LOX IMVI melanoma
[20] = test system: M14 melanoma
[21] = test system: MALME-3M melanoma
[22] = test system: MCF7 breast
[23] = test system: MDA-MB-231 breast
[24] = test system: MDA-MB-435
[25] = test system: MDA-N
[26] = test system: MOLT-4 leukemia
[27] = test system: NCI-H226 lung
[28] = test system: NCI-H23 lung
[29] = test system: NCI-H460 lung
[30] = test system: NCI-H522 lung
[31] = test system: NCI/ADR-RES ovarian
[32] = test system: OVCAR-3 ovarian
[33] = test system: OVCAR-4 ovarian
[34] = test system: OVCAR-5 ovarian
[35] = test system: OVCAR-8 ovarian
[36] = test system: PC-3 prostate
[37] = test system: RPMI-8226 leukemia
[38] = test system: RXF 393 renal
[39] = test system: SF-268 CNS
[40] = test system: SF-295 CNS
[41] = test system: SF-539 CNS
[42] = test system: SK-MEL-2 melanoma
[43] = test system: SK-MEL-28 melanoma
[44] = test system: SK-MEL-5 melanoma
[45] = test system: SK-OV-3 ovarian
[46] = test system: SN12C renal
[47] = test system: SNB-19 CNS
[48] = test system: SNB-75 CNS
[49] = test system: SR leukemia
[50] = test system: SW-620 colon
[51] = test system: T-47D breast
[52] = test system: TK-10 renal
[53] = test system: U251 CNS
[54] = test system: UACC-257 melanoma
[55] = test system: UACC-62 melanoma
[56] = test system: HCC-2998 colon
[57] = test system: UO-31 renal

With CCOC(=O)c1cnc(N(C)C)nc1SC(=N)N the TGI [1] was > 100 µM, the TGI [2] was > 100 µM and the TGI [3] was > 100 µM. The TGI [4] was > 100 µM, the TGI [5] was > 100 µM and the TGI [6] was > 100 µM. For the same compound, the TGI [7] was > 100 µM, the TGI [8] was > 100 µM and the TGI [9] was > 100 µM. The TGI [10] was > 100 µM, the TGI [11] was > 100 µM and the TGI [12] was > 100 µM. For the same compound, the TGI [13] was > 100 µM, the TGI [14] was > 100 µM and the TGI [15] was > 100 µM. For the same compound, the TGI [16] was > 100 µM, the TGI [17] was > 100 µM and the TGI [18] was > 100 µM. The TGI [19] was > 100 µM, the TGI [20] was > 100 µM and the TGI [21] was > 100 µM. For the same compound, the TGI [22] was > 100 µM, the TGI [23] was > 100 µM and the TGI [24] was > 100 µM. For the same compound, the TGI [25] was > 100 µM, the TGI [26] was > 100 µM and the TGI [27] was > 100 µM. For the same compound, the TGI [28] was > 100 µM, the TGI [29] was > 100 µM and the TGI [30] was > 100 µM. The TGI [31] was > 100 µM, the TGI [32] was > 100 µM and the TGI [33] was > 100 µM. For the same compound, the TGI [34] was > 100 µM, the TGI [35] was > 100 µM and the TGI [36] was > 100 µM. The TGI [37] was > 100 µM, the TGI [38] was > 100 µM and the TGI [39] was > 100 µM. For the same compound, the TGI [40] was > 100 µM, the TGI [41] was > 100 µM and the TGI [42] was > 100 µM. The TGI [43] was > 100 µM, the TGI [44] was > 100 µM and the TGI [45] was > 100 µM. For the same compound, the TGI [46] was > 100 µM, the TGI [47] was > 100 µM and the TGI [48] was > 100 µM. The TGI [49] was > 100 µM, the TGI [50] was > 100 µM and the TGI [51] was > 100 µM. The TGI [52] was > 100 µM, the TGI [53] was > 100 µM and the TGI [54] was > 100 µM. The TGI [55] was > 100 µM.

In the case of CC(=O)O[C@@H]1C[C@]2(C(=O)c3ccccc3)C(=O)C(=O)S[C@]12c1ccccc1, the TGI [1] is reported as > 100 µM, the TGI [2] is reported as > 100 µM and the TGI [3] is reported as > 100 µM. For the same compound, the TGI [4] was > 100 µM, the TGI [5] was > 100 µM and the TGI [6] was > 100 µM. For the same compound, the TGI [7] was > 100 µM, the TGI [8] was > 100 µM and the TGI [9] was > 100 µM. For the same compound, the TGI [56] was 75.1 µM, the TGI [10] was > 100 µM and the TGI [11] was > 100 µM. The TGI [12] was > 100 µM, the TGI [13] was > 100 µM and the TGI [14] was > 100 µM. For the same compound, the TGI [15] was > 100 µM, the TGI [16] was > 100 µM and the TGI [17] was 85 µM. The TGI [18] was > 100 µM, the TGI [19] was > 100 µM and the TGI [20] was > 100 µM. For the same compound, the TGI [21] was > 100 µM, the TGI [22] was > 100 µM and the TGI [23] was > 100 µM. The TGI [24] was > 100 µM, the TGI [25] was > 100 µM and the TGI [26] was > 100 µM. The TGI [27] was > 100 µM, the TGI [28] was > 100 µM and the TGI [29] was > 100 µM. For the same compound, the TGI [30] was > 100 µM, the TGI [31] was > 100 µM and the TGI [32] was > 100 µM. For the same compound, the TGI [33] was > 100 µM, the TGI [34] was > 100 µM and the TGI [35] was > 100 µM. The TGI [36] was > 100 µM, the TGI [37] was 99.4 µM and the TGI [38] was 49.9 µM. The TGI [39] was > 100 µM, the TGI [40] was > 100 µM and the TGI [41] was 60.4 µM. The TGI [42] was > 100 µM, the TGI [43] was > 100 µM and the TGI [44] was > 100 µM. The TGI [45] was > 100 µM, the TGI [46] was > 100 µM and the TGI [47] was > 100 µM. For the same compound, the TGI [48] was > 100 µM, the TGI [49] was 83.1 µM and the TGI [50] was > 100 µM. The TGI [51] was 94.3 µM, the TGI [52] was > 100 µM and the TGI [53] was > 100 µM. For the same compound, the TGI [54] was > 100 µM, the TGI [55] was > 100 µM and the TGI [57] was > 100 µM.
